Data as given in ChEMBL document CHEMBL1131927, “The synthesis and evaluation of temperature sensitive tubulin toxins” (Bioorg Med Chem Lett, 1999).

Experiments:
Format in all cases: functional
[1] = biological target: T1, Tubulin (Bos taurus, UniProt Q6B856+Q862L2+Q862F3); experiment: Inhibition of tubulin polymerization activity using homogenous bovine brain tubulin at 30 degree C
[2] = biological target: T1, Tubulin; experiment: Inhibition of tubulin polymerization activity using homogenous bovine brain tubulin at 37 degree C
[3] = biological target: T1, Tubulin; experiment: Inhibition of tubulin polymerization activity using homogenous bovine brain tubulin at 45 degree C
[4] = Selectivity ratio expressed as temperature dependence at 45 Degree C to that of 30 Degree C in bovine brain tubulin
[5] = test system: MCF7; experiment: In vitro growth inhibitory activity against human neoplastic MCF-7 cell line
[6] = test system: NCI-H520; experiment: In vitro growth inhibitory activity against human neoplastic NCI-H520 cell line
[7] = test system: PC-3; experiment: In vitro growth inhibitory activity against human neoplastic PC3 cell line

SMILES	IC50 [1] [µM]	IC50 [2] [µM]	IC50 [3] [µM]	Selectivity [4]	GI50 [5] [µM]	GI50 [6] [µM]	GI50 [7] [µM]
COc1cc2c(c(OC)c1OC)C(c1cccc(Br)c(=O)c1)CC2 (centres undefined)	32	28.1	22	1.45	–	–	–
CNc1cccc(C2CCc3cc(OC)c(OC)c(OC)c32)cc1=O (centres undefined)	30.6	23.5	–	1.3	–	–	–
COc1cc2c(c(OC)c1OC)C(c1cccc(OC)c(=O)c1)CC2 (centres undefined)	108	19	19	5.7	75	5.4	5.2
COc1ccc(C2CCc3cc(OC)c(OC)c(OC)c32)cc1O (centres undefined)	11.8	10.9	10.9	1.1	10	0.1	0.5
CCOc1cccc(C2CCc3cc(OC)c(OC)c(OC)c32)cc1=O (centres undefined)	26.2	18.2	18	1.7	–	–	–
COc1cc(C2CCc3cc(OC)c(OC)c(OC)c32)ccc1O (centres undefined)	46.4	46.4	46.4	0	>100	>100	>100
COc1cc2c(c(OC)c1OC)-c1ccc(OC)c(=O)cc1[C@@H](NC(C)=O)CC2 [COLCHICINE]	–	–	–	–	<0.05	<0.05	<0.05
COc1cc2c(c(OC)c1OC)C(c1cccc(N)c(=O)c1)CC2 (centres undefined)	29.5	23.6	23.6	1.25	–	–	–
